Measured values from patent publication US20240239752A1, “BICYCLIC HETEROAROMATIC INHIBITORS OF KLK5” (BioCryst Pharmaceuticals, Inc., priority 2021, published 2024).

Molecular target: T1, recombinant human KLK5 (Homo sapiens, UniProt Q9Y337)
T1 construct: purchased Novoprotein or R&D Systems C415 or 1108-SE
T1 sequence (Q9Y337 23-293): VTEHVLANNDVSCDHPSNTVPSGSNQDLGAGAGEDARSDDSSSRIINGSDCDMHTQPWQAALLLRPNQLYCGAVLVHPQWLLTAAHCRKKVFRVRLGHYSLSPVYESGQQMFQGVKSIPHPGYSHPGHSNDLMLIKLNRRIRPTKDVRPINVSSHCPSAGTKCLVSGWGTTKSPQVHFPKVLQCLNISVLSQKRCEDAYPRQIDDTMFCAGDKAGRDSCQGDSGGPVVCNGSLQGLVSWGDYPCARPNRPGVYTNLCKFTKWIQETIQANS
Assay: Kallikrein (KLK) 5 enzymatic assay (Boc-VPR-AMC fluorogenic substrate)
Format: biochemical
Details: recombinant human KLK5 0.1 μg/well, Boc-VPR-AMC 100 μM, pH 7.5, room temperature, 1% DMSO; tested a minimum of three times
Procedure, shortened: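 Fluorogenic rate assay at pH 7.5 (0.1 M NaH2PO4, 1% DMSO, room temperature), run at least three times per compound. Compound was premixed with 0.1 μg/well recombinant human KLK5 before adding 100 μM Boc-VPR-AMC; AMC release was read at ex 380/em 460 nm, and IC50 derived from inhibition of rate vs DMSO control.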

**Q.** `Nc1nccc2c(-c3ccc4c(c3)c(COc3ccccc3CC(=O)O)nn4[C@@H]3CCOC3)cccc12` [Compound 245h, (R)-2-(2-((5-(1-aminoisoquinolin-5-yl)-1-(tetrahydrofuran-3-yl)-1H-indazol-3-yl)methoxy)phenyl)acetic acid] was tested. Which IC50 did it give?
**A.** < 1000 nM

**Q.** For `Nc1nccc2ccc(-c3ccc4c(c3)c(COc3ccccc3CC(=O)O)nn4[C@@H]3CCOC3)cc12` [Compound 246b, (R)-2-(2-((5-(1-aminoisoquinolin-7-yl)-1-(tetrahydrofuran-3-yl)-1H-indazol-3-yl)methoxy)phenyl)acetic acid], which IC50 is on record?
**A.** < 1000 nM

**Q.** `Cc1cccc(OCc2nn(C3CCOC3)c3ccc(-c4cccc5c(N)nccc45)cc23)c1CC(=O)O` (centres unmarked) [Compound 247c, 2-(2-((5-(1-aminoisoquinolin-5-yl)-1-(tetrahydrofuran-3-yl)-1H-indazol-3-yl)methoxy)-6-methylphenyl)acetic acid] was tested. Which IC50 did it give?
**A.** < 1000 nM

**Q.** Which IC50 does the source give for `Cc1cccc(OCc2nn(C3CCOC3)c3ccc(-c4ccc5ccnc(N)c5c4)cc23)c1CC(=O)O` (centres unmarked) [Compound 248b, 2-(2-((5-(1-aminoisoquinolin-7-yl)-1-(tetrahydrofuran-3-yl)-1H-indazol-3-yl)methoxy)-6-methylphenyl)acetic acid] here?
**A.** < 1000 nM

**Q.** Which IC50 does the source give for `Nc1nccc2c(-c3ccc4c(c3)c(COc3ccccc3CC(=O)O)nn4C3CCOC3)cccc12` (centres unmarked) [Compound 249b, 2-(2-((5-(1-aminoisoquinolin-5-yl)-1-(tetrahydrofuran-3-yl)-1H-indazol-3-yl)methoxy)phenyl)acetic acid] here?
**A.** < 1000 nM

**Q.** `Nc1nccc2ccc(-c3ccc4c(c3)c(COc3ccccc3CC(=O)O)nn4C3CCOC3)cc12` (centres unmarked) [Compound 250b, 2-(2-((5-(1-aminoisoquinolin-7-yl)-1-(tetrahydrofuran-3-yl)-1H-indazol-3-yl)methoxy)phenyl)acetic acid] was tested. Which IC50 did it give?
**A.** < 1000 nM

**Q.** With `Nc1nccc2c(-c3ccc4c(c3)c(COc3ccccc3CC(=O)O)nn4CC3CC3)cccc12` [Compound 251c, 2-(2-((5-(1-aminoisoquinolin-5-yl)-1-(cyclopropylmethyl)-1H-indazol-3-yl)methoxy)phenyl)acetic acid] as the molecule, how does the IC50 read?
**A.** < 1000 nM

**Q.** How did the IC50 turn out when `Nc1nccc2c(-c3ccc4c(c3)c(COc3ccccc3CC(=O)O)nn4CC3CCC3)cccc12` [Compound 252h, 2-(2-((5-(1-aminoisoquinolin-5-yl)-1-(cyclobutylmethyl)-1H-indazol-3-yl)methoxy)phenyl)acetic acid] was run?
**A.** < 1000 nM

**Q.** With `Nc1nccc2ccc(-c3ccc4c(c3)c(COc3ccccc3CC(=O)O)nn4CC3CCC3)cc12` [Compound 253b, 2-(2-((5-(1-aminoisoquinolin-7-yl)-1-(cyclobutylmethyl)-1H-indazol-3-yl)methoxy)phenyl)acetic acid] as the molecule, how does the IC50 read?
**A.** < 1000 nM

**Q.** How did the IC50 turn out when `N=C(N)c1cccc(-c2ccc3c(c2)c(COc2ccccc2CC(=O)O)nn3CC2CCC2)c1` [Compound 254c, 2-(2-((5-(3-carbamimidoylphenyl)-1-(cyclobutylmethyl)-1H-indazol-3-yl)methoxy)phenyl)acetic acid] was run?
**A.** < 1000 nM

**Q.** `COc1c(C(=N)N)cccc1-c1ccc2c(c1)c(COc1ccccc1CC(=O)O)nn2CC1CCC1` [Compound 255d, 2-(2-((5-(3-carbamimidoyl-2-methoxyphenyl)-1-(cyclobutylmethyl)-1H-indazol-3-yl)methoxy)phenyl)acetic acid] was tested. Which IC50 did it give?
**A.** < 1000 nM

**Q.** For `Nc1nccc2c(-c3cc(-c4ccccc4)c4c(c3)C(Oc3ccccc3CC(=O)O)CC4)cccc12` (centres unmarked) [Compound 256f, 2-(2-((6-(1-aminoisoquinolin-5-yl)-4-phenyl-2,3-dihydro-1H-inden-1-yl)oxy)phenyl)acetic acid], which IC50 is on record?
**A.** 1000 to 10000 nM

**Q.** Which IC50 does the source give for `Nc1nccc2c(-c3cc(C4CC4)c4c(c3)C(Oc3ccccc3CC(=O)O)CC4)cccc12` (centres unmarked) [Compound 257b, 2-(2-((6-(1-aminoisoquinolin-5-yl)-4-cyclopropyl-2,3-dihydro-1H-inden-1-yl)oxy)phenyl)acetic acid] here?
**A.** < 1000 nM

**Q.** Which IC50 does the source give for `Nc1nccc2c(-c3cc(Cl)c4c(c3)C(Oc3ccccc3CC(=O)O)CC4)cccc12` (centres unmarked) [Compound 258a, 2-(2-((6-(1-aminoisoquinolin-5-yl)-4-chloro-2,3-dihydro-1H-inden-1-yl)oxy)phenyl)acetic acid] here?
**A.** < 1000 nM

**Q.** With `Cc1cccc(O[C@@H]2CCc3ccc(-c4cccc5c(N)nccc45)cc32)c1CC(=O)O` [Compound 259c, (R)-2-(2-((6-(1-aminoisoquinolin-5-yl)-2,3-dihydro-1H-inden-1-yl)oxy)-6-methylphenyl)acetic acid] as the molecule, how does the IC50 read?
**A.** < 1000 nM

**Q.** With `Cc1cccc(O[C@@H]2CCc3ccc(-c4ccc5ccnc(N)c5c4)cc32)c1CC(=O)O` [Compound 260b, (R)-2-(2-((6-(1-aminoisoquinolin-7-yl)-2,3-dihydro-1H-inden-1-yl)oxy)-6-methylphenyl)acetic acid] as the molecule, how does the IC50 read?
**A.** < 1000 nM

**Q.** With `Nc1nccc2c(-c3cc(-c4ccoc4)c4c(c3)C(Oc3ccccc3CC(=O)O)CC4)cccc12` (centres unmarked) [Compound 261b, 2-(2-((6-(1-aminoisoquinolin-5-yl)-4-(furan-3-yl)-2,3-dihydro-1H-inden-1-yl)oxy)phenyl)acetic acid] as the molecule, how does the IC50 read?
**A.** < 1000 nM

**Q.** `CC(C)n1nc(COc2ccccc2CC(=O)O)c2cc(-c3cccc(C(=N)N)c3O)ccc21` [Compound 262e, 2-(2-((5-(3-carbamimidoyl-2-hydroxyphenyl)-1-isopropyl-1H-indazol-3-yl)methoxy)phenyl)acetic acid] was tested. Which IC50 did it give?
**A.** < 1000 nM

**Q.** Which IC50 does the source give for `COc1c(C(=N)N)cccc1-c1ccc2c(c1)c(COc1ccccc1CC(=O)O)nn2C1CCCC1` [Compound 263d, 2-(2-((5-(3-carbamimidoyl-2-methoxyphenyl)-1-cyclopentyl-1H-indazol-3-yl)methoxy)phenyl)acetic acid] here?
**A.** < 1000 nM

**Q.** `COc1c(C(=N)N)cccc1-c1ccc2c(c1)c(COc1ccccc1CC(=O)O)nn2C1CCOC1` (centres unmarked) [Compound 264d, 2-(2-((5-(3-carbamimidoyl-2-methoxyphenyl)-1-(tetrahydrofuran-3-yl)-1H-indazol-3-yl)methoxy)phenyl)acetic acid] was tested. Which IC50 did it give?
**A.** < 1000 nM

**Q.** Which IC50 does the source give for `Nc1nccc2c(-c3ccc4c(c3)c(COc3ccccc3CC(=O)O)nn4C3CCC(F)(F)C3)cccc12` (centres unmarked) [Compound 265h, 2-(2-((5-(1-aminoisoquinolin-5-yl)-1-(3,3-difluorocyclopentyl)-1H-indazol-3-yl)methoxy)phenyl)acetic acid] here?
**A.** < 1000 nM

**Q.** With `Nc1nccc2ccc(-c3ccc4c(c3)c(COc3ccccc3CC(=O)O)nn4C3CCC(F)(F)C3)cc12` (centres unmarked) [Compound 266b, 2-(2-((5-(1-aminoisoquinolin-7-yl)-1-(3,3-difluorocyclopentyl)-1H-indazol-3-yl)methoxy)phenyl)acetic acid] as the molecule, how does the IC50 read?
**A.** < 1000 nM

**Q.** Which IC50 does the source give for `COc1cccc(CC(=O)O)c1OCc1coc2c(OC)cc(-c3ccc4ccnc(N)c4c3)cc12` [Compound 267g, 2-(2-((5-(1-aminoisoquinolin-7-yl)-7-methoxybenzofuran-3-yl)methoxy)-3-methoxyphenyl)acetic acid] here?
**A.** > 10000 nM

**Q.** For `N=C(N)c1cccc(-c2cc3c(COc4ccccc4C(O)C(=O)O)cccc3o2)c1` (centres unmarked) [Compound 268d, 2-(2-((2-(3-carbamimidoylphenyl)benzofuran-4-yl)methoxy)phenyl)-2-hydroxyacetic acid], which IC50 is on record?
**A.** 1000 to 10000 nM

**Q.** For `COc1cc2nn(C3CCC3)c(COc3ccccc3CC(=O)O)c2cc1-c1ccc2ccnc(N)c2c1` [Compound 269f, 2-(2-((5-(1-aminoisoquinolin-7-yl)-2-cyclobutyl-6-methoxy-2H-indazol-3-yl)methoxy)phenyl)acetic acid], which IC50 is on record?
**A.** < 1000 nM

**Q.** With `COc1cc2nn(C3CCC3)c(COc3ccccc3CC(=O)O)c2cc1-c1cccc2c(N)nccc12` [Compound 270b, 2-(2-((5-(1-aminoisoquinolin-5-yl)-2-cyclobutyl-6-methoxy-2H-indazol-3-yl)methoxy)phenyl)acetic acid] as the molecule, how does the IC50 read?
**A.** > 10000 nM

**Q.** For `COc1cc2nn(C3CCC3)c(COc3ccccc3CC(=O)O)c2cc1-c1cccc(C(=N)N)c1` [Compound 271c, 2-(2-((5-(3-carbamimidoylphenyl)-2-cyclobutyl-6-methoxy-2H-indazol-3-yl)methoxy)phenyl)acetic acid], which IC50 is on record?
**A.** 1000 to 10000 nM

**Q.** `CC(C)Oc1c(C(=N)N)cccc1-c1ccc2c(c1)c(COc1ccccc1CC(=O)O)nn2C(C)C` [Compound 272f, 2-(2-((5-(3-carbamimidoyl-2-isopropoxyphenyl)-1-isopropyl-1H-indazol-3-yl)methoxy)phenyl)acetic acid] was tested. Which IC50 did it give?
**A.** 1000 to 10000 nM

**Q.** With `CCOc1c(C(=N)N)cccc1-c1ccc2c(c1)c(COc1ccccc1CC(=O)O)nn2C(C)C` [Compound 273e, 2-(2-((5-(3-carbamimidoyl-2-ethoxyphenyl)-1-isopropyl-1H-indazol-3-yl)methoxy)phenyl)acetic acid] as the molecule, how does the IC50 read?
**A.** < 1000 nM

**Q.** `Nc1nccc2c(-c3ccc4c(c3)c(Cn3ccc5cccc(C(=O)O)c53)nn4C3CCOC3)cccc12` (centres unmarked) [Compound 274e, 1-((5-(1-aminoisoquinolin-5-yl)-1-(tetrahydrofuran-3-yl)-1H-indazol-3-yl)methyl)-1H-indole-7-carboxylic acid] was tested. Which IC50 did it give?
**A.** 1000 to 10000 nM

**Q.** With `Nc1nccc2ccc(-c3ccc4c(c3)c(Cn3ccc5cccc(C(=O)O)c53)nn4C3CCOC3)cc12` (centres unmarked) [Compound 275b, 1-((5-(1-aminoisoquinolin-7-yl)-1-(tetrahydrofuran-3-yl)-1H-indazol-3-yl)methyl)-1H-indole-7-carboxylic acid] as the molecule, how does the IC50 read?
**A.** > 10000 nM

**Q.** For `Cc1cccc(OCc2nn(C3CCC(F)(F)C3)c3ccc(-c4cccc5c(N)nccc45)cc23)c1CC(=O)O` (centres unmarked) [Compound 276c, 2-(2-((5-(1-aminoisoquinolin-5-yl)-1-(3,3-difluorocyclopentyl)-1H-indazol-3-yl)methoxy)-6-methylphenyl)acetic acid], which IC50 is on record?
**A.** < 1000 nM
